# Measured values: ChEMBL document CHEMBL1201861, “Genomics of Drug Sensitity in Cancer screening data, Wellcome Trust Sanger Institute”
# pIC50: −log10 of the molar value.
# Columns and labels:
# Assay in all cases: cells
# KE-37 = type: functional, cell-based; conditions: Homo sapiens;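 also: growth inhibition of KE-37 cells, read out with a cell viability assay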
# Description: SANGER: Inhibition of human KE-37 cell growth in a cell viability assay.
# KP-N-YN = type: functional, cell-based; conditions: Homo sapiens;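 also: growth inhibition of KP-N-YN cells, read out with a cell viability assay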
# Description: SANGER: Inhibition of human KP-N-YN cell growth in a cell viability assay.
# GOTO = type: functional, cell-based, Homo sapiens; conditions: Homo sapiens, GOTO;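 also: growth inhibition of GOTO cells, read out by a cell viability assay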
# Description: SANGER: Inhibition of human GOTO cell growth in a cell viability assay.
# NCI-H810 = type: functional, cell-based, Homo sapiens; conditions: Homo sapiens, NCI-H810;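 also: IC50 reflects inhibition of cancer cell line growth, read out with a cell viability assay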
# Description: SANGER: Inhibition of human NCI-H810 cell growth in a cell viability assay.
# TE-9 = type: functional, cell-based, Homo sapiens; conditions: Homo sapiens, TE-9;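 also: cell growth inhibition, measured with a cell viability readout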
# Description: SANGER: Inhibition of human TE-9 cell growth in a cell viability assay.
# NEC8 = type: functional, cell-based, Homo sapiens; conditions: Homo sapiens, NEC8;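 also: growth inhibition of human NEC8 cells, read out by a cell viability assay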
# Description: SANGER: Inhibition of human NEC8 cell growth in a cell viability assay.
# COLO-679 = type: functional, cell-based, Homo sapiens; conditions: Homo sapiens, COLO-679
# Description: SANGER: Inhibition of human COLO-679 cell growth in a cell viability assay.
# OS-RC-2 = type: functional, cell-based, Homo sapiens; conditions: Homo sapiens, OS-RC-2;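 also: growth inhibition of human OS-RC-2 cells, measured by a cell viability assay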
# Description: SANGER: Inhibition of human OS-RC-2 cell growth in a cell viability assay.
# NCI-H2052 = type: functional, cell-based, Homo sapiens; conditions: Homo sapiens, NCI-H2052;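 also: growth inhibition of NCI-H2052 cells, read out with a cell viability assay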
# Description: SANGER: Inhibition of human NCI-H2052 cell growth in a cell viability assay.
# MOLT-4 = type: functional, cell-based; conditions: Homo sapiens;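 also: growth inhibition of MOLT-4 cells, determined with a cell viability readout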
# Description: SANGER: Inhibition of human MOLT-4 cell growth in a cell viability assay.
# HMV-2 cell line = type: functional, cell-based, Homo sapiens; conditions: Homo sapiens, HMV-2;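 also: growth inhibition of HMV-II cells, read out with a cell viability assay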
# Description: SANGER: Inhibition of human HMV-II cell growth in a cell viability assay.
# HGC-27 = type: functional, cell-based, Homo sapiens; conditions: Homo sapiens, HGC-27;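 also: growth inhibition of human HGC-27 cells, read out in a cell viability assay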
# Description: SANGER: Inhibition of human HGC-27 cell growth in a cell viability assay.
# SAS = type: functional, cell-based, Homo sapiens; conditions: Homo sapiens, SAS;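 also: growth inhibition of SAS cells, read out with a cell viability assay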
# Description: SANGER: Inhibition of human SAS cell growth in a cell viability assay.
# HCC1395 = type: functional, cell-based, Homo sapiens; conditions: Homo sapiens, HCC1395;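 also: growth inhibition of HCC1395 cells, read out by a cell viability assay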
# Description: SANGER: Inhibition of human HCC1395 cell growth in a cell viability assay.
# NCI-H720 = type: functional, cell-based; conditions: Homo sapiens;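 also: growth inhibition of human NCI-H720 cells determined by a cell viability assay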
# Description: SANGER: Inhibition of human NCI-H720 cell growth in a cell viability assay.
# GP5d = type: functional, cell-based, Homo sapiens; conditions: Homo sapiens, GP5d;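 also: growth inhibition of human GP5d cells, read out with a cell viability assay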
# Description: SANGER: Inhibition of human GP5d cell growth in a cell viability assay.
# U2OS = type: functional, cell-based, Homo sapiens, U-2-OS; conditions: Homo sapiens, U2OS;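 also: growth inhibition of human U-2-OS cells, determined with a cell viability assay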
# Description: SANGER: Inhibition of human U-2-OS cell growth in a cell viability assay.
# PC-14 = type: functional, cell-based, Homo sapiens; conditions: Homo sapiens, PC-14;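 also: cell viability assay measuring inhibition of PC-14 cell growth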
# Description: SANGER: Inhibition of human PC-14 cell growth in a cell viability assay.
# SK-LMS-1 = type: functional, cell-based, Homo sapiens; conditions: Homo sapiens, SK-LMS-1;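 also: growth inhibition of human SK-LMS-1 cells, read out with a cell viability assay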
# Description: SANGER: Inhibition of human SK-LMS-1 cell growth in a cell viability assay.
# DEL = type: functional, cell-based; conditions: Homo sapiens;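 also: growth inhibition of the human DEL cell line, read out with a cell viability assay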
# Description: SANGER: Inhibition of human DEL cell growth in a cell viability assay.
# CTV-1 = type: functional, cell-based; conditions: Homo sapiens;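 also: growth inhibition of the cell line, read out with a cell viability assay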
# Description: SANGER: Inhibition of human CTV-1 cell growth in a cell viability assay.
# GMS-10 = type: functional, cell-based, Homo sapiens; conditions: Homo sapiens, GMS-10;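 also: growth inhibition of GMS-10 cells, read out as cell viability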
# Description: SANGER: Inhibition of human GMS-10 cell growth in a cell viability assay.
# LoVo = type: functional, cell-based; conditions: Homo sapiens;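 also: growth inhibition of human LoVo cells, read out with a cell viability assay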
# Description: SANGER: Inhibition of human LoVo cell growth in a cell viability assay.
# NCI-H2170 = type: functional, cell-based, Homo sapiens; conditions: Homo sapiens, NCI-H2170;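 also: cell viability assay measuring growth inhibition of human NCI-H2170 cancer cells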
# Description: SANGER: Inhibition of human NCI-H2170 cell growth in a cell viability assay.
# TCC-SUP = type: functional, cell-based, Homo sapiens; conditions: Homo sapiens, TCC-SUP;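 also: growth inhibition of TCC-SUP cells, read out with a cell viability assay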
# Description: SANGER: Inhibition of human TCCSUP cell growth in a cell viability assay.
# HN = type: functional, cell-based, Homo sapiens; conditions: Homo sapiens, HN
# Description: SANGER: Inhibition of human HN cell growth in a cell viability assay.
# RMG-I = type: functional, cell-based, Homo sapiens; conditions: Homo sapiens, RMG-I;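 also: growth inhibition of human RMG-I cells, read out with a cell viability assay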
# Description: SANGER: Inhibition of human RMG-I cell growth in a cell viability assay.
# HT = type: functional, cell-based; conditions: Homo sapiens
# Description: SANGER: Inhibition of human HT cell growth in a cell viability assay.
# LU-139 = type: functional, cell-based; conditions: Homo sapiens
# Description: SANGER: Inhibition of human LU-139 cell growth in a cell viability assay.
# CAL-12T = type: functional, cell-based, Homo sapiens; conditions: Homo sapiens, CAL-12T;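 also: growth inhibition of human CAL-12T cells, read out with a cell viability assay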
# Description: SANGER: Inhibition of human CAL-12T cell growth in a cell viability assay.
# GI-ME-N = type: functional, cell-based, Homo sapiens; conditions: Homo sapiens, GI-ME-N;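 also: growth inhibition of human GI-ME-N cells, read out with a cell viability assay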
# Description: SANGER: Inhibition of human GI-ME-N cell growth in a cell viability assay.
# VA-ES-BJ = type: functional, cell-based, Homo sapiens; conditions: Homo sapiens, VA-ES-BJ;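 also: growth inhibition of the VA-ES-BJ cell line, read out by a cell viability assay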
# Description: SANGER: Inhibition of human VA-ES-BJ cell growth in a cell viability assay.
# DU-145 = type: functional, cell-based, Homo sapiens; conditions: Homo sapiens, DU-145
# Description: SANGER: Inhibition of human DU-145 cell growth in a cell viability assay.
# NCI-H2452 = type: functional, cell-based, Homo sapiens; conditions: Homo sapiens, NCI-H2452;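 also: growth inhibition of NCI-H2452 cells, read out with a cell viability assay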
# Description: SANGER: Inhibition of human NCI-H2452 cell growth in a cell viability assay.
# NB7 = type: functional, cell-based; conditions: Homo sapiens;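 also: growth inhibition of NB7 cells, read out with a cell viability assay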
# Description: SANGER: Inhibition of human NB7 cell growth in a cell viability assay.
# ASPC1 = type: functional, cell-based, Homo sapiens; conditions: Homo sapiens, ASPC1;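 also: growth inhibition of AsPC-1 cells, read out with a cell viability assay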
# Description: SANGER: Inhibition of human AsPC-1 cell growth in a cell viability assay.
# U-251 = type: functional, cell-based, Homo sapiens; conditions: Homo sapiens, U-251;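 also: growth inhibition of human U-251 cells, read out through a cell viability assay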
# Description: SANGER: Inhibition of human U251 cell growth in a cell viability assay.
# RT-112 = type: functional, cell-based, Homo sapiens; conditions: Homo sapiens, RT-112
# Description: SANGER: Inhibition of human RT-112 cell growth in a cell viability assay.
# NCI-H2030 = type: functional, cell-based, Homo sapiens; conditions: Homo sapiens, NCI-H2030;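 also: growth inhibition of human NCI-H2030 cells, read out by a cell viability assay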
# Description: SANGER: Inhibition of human NCI-H2030 cell growth in a cell viability assay.
# C-33-A = type: functional, cell-based, Homo sapiens; conditions: Homo sapiens, C-33-A;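 also: cell viability assay measuring growth inhibition of C-33-A cells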
# Description: SANGER: Inhibition of human C-33-A cell growth in a cell viability assay.
# CAL-51 = type: functional, cell-based, Homo sapiens; conditions: Homo sapiens, CAL-51;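 also: human CAL-51 cell line, growth inhibition read out via a cell viability assay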
# Description: SANGER: Inhibition of human CAL-51 cell growth in a cell viability assay.
# MEG-01 = type: functional, cell-based; conditions: Homo sapiens;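 also: growth inhibition of MEG-01 cells, read out by a cell viability assay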
# Description: SANGER: Inhibition of human MEG-01 cell growth in a cell viability assay.
# DOK = type: functional, cell-based, Homo sapiens; conditions: Homo sapiens, DOK;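 also: cell viability assay read-out, values reflect inhibition of cell growth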
# Description: SANGER: Inhibition of human DOK cell growth in a cell viability assay.
# SK-N-FI = type: functional, cell-based, Homo sapiens; conditions: Homo sapiens, SK-N-FI;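 also: cell viability assay measuring growth inhibition of human SK-N-FI cells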
# Description: SANGER: Inhibition of human SK-N-FI cell growth in a cell viability assay.
# HuO-3N1 = type: functional, cell-based, Homo sapiens; conditions: Homo sapiens, HuO-3N1;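 also: cell viability readout used to measure how strongly compounds suppress proliferation of human HuO-3N1 cells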
# Description: SANGER: Inhibition of human HuO-3N1 cell growth in a cell viability assay.
# PSN1 = type: functional, cell-based, Homo sapiens; conditions: Homo sapiens, PSN1;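 also: suppression of growth of human PSN1 cells, read out by a cell viability assay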
# Description: SANGER: Inhibition of human PSN1 cell growth in a cell viability assay.
# NCI-H226 = type: functional, cell-based, Homo sapiens; conditions: Homo sapiens, NCI-H226;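 also: cell viability read-out used to gauge growth inhibition of the cells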
# Description: SANGER: Inhibition of human NCI-H226 cell growth in a cell viability assay.
# KYSE-450 = type: functional, cell-based; conditions: Homo sapiens;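 also: cell growth inhibition measured by a viability assay in human KYSE-450 cells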
# Description: SANGER: Inhibition of human KYSE-450 cell growth in a cell viability assay.
# COR-L23 = type: functional, cell-based, Homo sapiens; conditions: Homo sapiens, COR-L23;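 also: cell viability assay measuring how strongly compounds suppress growth of COR-L23 cells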
# Description: SANGER: Inhibition of human COR-L23 cell growth in a cell viability assay.
# OVCAR-3 = type: functional, cell-based, Homo sapiens; conditions: Homo sapiens, OVCAR-3;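 also: growth inhibition of human OVCAR-3 cells, determined by a cell viability assay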
# Description: SANGER: Inhibition of human OVCAR-3 cell growth in a cell viability assay.
# IA-LM = type: functional, cell-based, Homo sapiens; conditions: Homo sapiens, IA-LM;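 also: cell viability assay measuring growth inhibition of human IA-LM cells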
# Description: SANGER: Inhibition of human IA-LM cell growth in a cell viability assay.
# EW-11 = type: functional, cell-based, Homo sapiens; conditions: Homo sapiens, EW-11;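 also: growth inhibition of human EW-11 cells, measured with a cell viability assay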
# Description: SANGER: Inhibition of human EW-11 cell growth in a cell viability assay.
smiles,measurement,setting,value
Nc1ccn([C@@H]2O[C@H](CO)[C@@H](O)[C@@H]2O)c(=O)n1 [CYTARABINE],pIC50,KE-37,6.96
same,pIC50,KP-N-YN,< 5.70
same,pIC50,GOTO,6.37
same,pIC50,NCI-H810,< 5.70
same,pIC50,TE-9,5.75
same,pIC50,NEC8,6.87
same,pIC50,COLO-679,< 5.70
same,pIC50,OS-RC-2,5.80
same,pIC50,NCI-H2052,< 5.70
same,pIC50,MOLT-4,7.05
same,pIC50,HMV-2 cell line,6.91
same,pIC50,HGC-27,6.34
same,pIC50,SAS,6.97
same,pIC50,HCC1395,< 5.70
same,pIC50,NCI-H720,< 5.70
same,pIC50,GP5d,6.99
same,pIC50,U2OS,6.46
same,pIC50,PC-14,6.22
same,pIC50,SK-LMS-1,< 5.70
same,pIC50,DEL,6.06
same,pIC50,CTV-1,7.07
same,pIC50,GMS-10,6.40
same,pIC50,LoVo,6.17
same,pIC50,NCI-H2170,< 5.70
same,pIC50,TCC-SUP,< 5.70
same,pIC50,HN,6.66
same,pIC50,RMG-I,< 5.70
same,pIC50,HT,< 5.70
same,pIC50,LU-139,< 5.70
same,pIC50,CAL-12T,< 5.70
same,pIC50,GI-ME-N,5.78
same,pIC50,VA-ES-BJ,7.14
same,pIC50,DU-145,< 5.70
same,pIC50,NCI-H2452,< 5.70
same,pIC50,NB7,5.82
same,pIC50,ASPC1,5.86
same,pIC50,U-251,5.95
same,pIC50,RT-112,6.30
same,pIC50,NCI-H2030,5.98
same,pIC50,C-33-A,6.26
same,pIC50,CAL-51,6.24
same,pIC50,MEG-01,< 5.70
same,pIC50,DOK,6.04
same,pIC50,SK-N-FI,< 5.70
same,pIC50,HuO-3N1,5.88
same,pIC50,PSN1,6.71
same,pIC50,NCI-H226,< 5.70
same,pIC50,KYSE-450,5.96
same,pIC50,COR-L23,6.10
same,pIC50,OVCAR-3,< 5.70
same,pIC50,IA-LM,< 5.70
O=c1cc(-c2cccc3c2Sc2ccccc2S3)oc(N2CCOCC2)c1 [KU-55933],pIC50,KE-37,< 5.00
same,pIC50,KP-N-YN,< 5.00
same,pIC50,GOTO,< 5.00
same,pIC50,NCI-H810,< 5.00
same,pIC50,TE-9,< 5.00
same,pIC50,NEC8,< 5.00
same,pIC50,COLO-679,< 5.00
same,pIC50,OS-RC-2,< 5.00
same,pIC50,NCI-H2052,< 5.00
same,pIC50,MOLT-4,< 5.00
same,pIC50,HMV-2 cell line,< 5.00
same,pIC50,HGC-27,< 5.00
same,pIC50,SAS,< 5.00
same,pIC50,HCC1395,< 5.00
same,pIC50,GP5d,< 5.00
same,pIC50,U2OS,< 5.00
same,pIC50,PC-14,< 5.00
same,pIC50,SK-LMS-1,< 5.00
same,pIC50,DEL,< 5.00
same,pIC50,GMS-10,< 5.00
same,pIC50,LoVo,5.16
same,pIC50,NCI-H2170,< 5.00
same,pIC50,TCC-SUP,< 5.00
same,pIC50,HN,< 5.00
same,pIC50,RMG-I,< 5.00
same,pIC50,HT,< 5.00
same,pIC50,CAL-12T,< 5.00
same,pIC50,GI-ME-N,< 5.00
same,pIC50,VA-ES-BJ,< 5.00
same,pIC50,DU-145,5.48
same,pIC50,NCI-H2452,< 5.00
same,pIC50,NB7,< 5.00
same,pIC50,ASPC1,< 5.00
same,pIC50,U-251,< 5.00
same,pIC50,EW-11,< 5.00
same,pIC50,RT-112,< 5.00
same,pIC50,NCI-H2030,< 5.00
same,pIC50,C-33-A,< 5.00
same,pIC50,CAL-51,< 5.00
same,pIC50,MEG-01,< 5.00
same,pIC50,DOK,< 5.00
same,pIC50,SK-N-FI,< 5.00
same,pIC50,HuO-3N1,5.38
same,pIC50,PSN1,< 5.00
same,pIC50,NCI-H226,< 5.00
same,pIC50,KYSE-450,< 5.00
same,pIC50,COR-L23,< 5.00
same,pIC50,OVCAR-3,< 5.00
same,pIC50,IA-LM,< 5.00
Cn1cc(C2=C(c3ccc(Cl)cc3Cl)C(=O)NC2=O)c2ccccc21 [SB-216763],pIC50,KE-37,< 5.00
same,pIC50,KP-N-YN,< 5.00
same,pIC50,GOTO,< 5.00
same,pIC50,NCI-H810,< 5.00
same,pIC50,TE-9,< 5.00
same,pIC50,COLO-679,< 5.00
same,pIC50,OS-RC-2,< 5.00
same,pIC50,NCI-H2052,< 5.00
same,pIC50,MOLT-4,< 5.00
same,pIC50,HMV-2 cell line,5.11
same,pIC50,HGC-27,< 5.00
same,pIC50,SAS,< 5.00
same,pIC50,HCC1395,< 5.00
same,pIC50,GP5d,< 5.00
same,pIC50,U2OS,< 5.00
same,pIC50,PC-14,< 5.00
same,pIC50,SK-LMS-1,< 5.00
same,pIC50,DEL,< 5.00
same,pIC50,CTV-1,< 5.00
same,pIC50,GMS-10,< 5.00
same,pIC50,LoVo,< 5.00
same,pIC50,NCI-H2170,< 5.00
same,pIC50,TCC-SUP,< 5.00
same,pIC50,HN,< 5.00
same,pIC50,RMG-I,< 5.00
same,pIC50,HT,< 5.00
same,pIC50,LU-139,< 5.00
same,pIC50,CAL-12T,< 5.00
same,pIC50,GI-ME-N,< 5.00
same,pIC50,VA-ES-BJ,< 5.00
same,pIC50,DU-145,< 5.00
same,pIC50,NCI-H2452,< 5.00
same,pIC50,NB7,< 5.00
same,pIC50,ASPC1,< 5.00
same,pIC50,U-251,< 5.00
same,pIC50,EW-11,< 5.00
same,pIC50,RT-112,< 5.00
same,pIC50,NCI-H2030,< 5.00
same,pIC50,C-33-A,< 5.00
same,pIC50,CAL-51,< 5.00
same,pIC50,MEG-01,< 5.00
same,pIC50,DOK,< 5.00
same,pIC50,SK-N-FI,< 5.00
same,pIC50,HuO-3N1,< 5.00
same,pIC50,PSN1,< 5.00
same,pIC50,NCI-H226,< 5.00
same,pIC50,KYSE-450,< 5.00
same,pIC50,COR-L23,< 5.00
same,pIC50,OVCAR-3,< 5.00
same,pIC50,IA-LM,< 5.00
